Laboratory results: patent US10017504B2, “Piperidine isoxazole and isothiazole orexin receptor antagonists” (MERCK SHARP & DOHME CORP., priority 2014, dated 2018)

These molecules were tested against human orexin-2 receptor (Homo sapiens (Human), UniProt O43614) (assay: FLIPR Ca2+ Flux Assay, orexin-2 receptor). Conditions: CHO cells expressing the human orexin-2 receptor; agonist 70 pM Ala-6,12 human orexin-A; read-out: hOX2 FLIPR IC50.
Type: cell-based
Protocol: In a typical experiment the OX1 and OX2 receptor antagonistic activity of the compounds of the present invention was determined in accordance with the following experimental method. For intracellular calcium measurements, Chinese hamster ovary (CHO) cells expressing the rat orexin-1 receptor or the human orexin-2 receptor, are grown in Iscove's modified DMEM containing 2 mM L-glutamine, […], 1% hypoxanthine-thymidine supplement, 100 U/ml penicillin, 100 μg/ml streptomycin and 10% heat-inactivated fetal calf serum (FCS). The cells are seeded at 20,000 cells/well into Becton-Dickinson black 384-well clear bottom sterile plates coated with poly-D-lysine. All reagents are from GIBCO-Invitrogen Corp. The seeded plates are incubated overnight at 37° C. and 5% CO2. Ala-6,12 human orexin-A as the agonist is prepared as a 1 mM stock solution in 1% bovine serum albumin (BSA) and diluted in assay buffer (HBSS containing 20 mM HEPES, 0.1% BSA and 2.5 mM probenecid, pH7.4) for use in the assay at a final concentration of 70 pM. Test compounds are prepared as 10 mM stock solution in DMSO, then diluted in 384-well plates, first in DMSO, then assay buffer. On the day of the assay, cells are washed 3 times with 100 μl assay buffer and then incubated for 60 min (37° C., 5% CO2) in 60 μl assay buffer containing 1 μM Fluo-4AM ester, 0.02% pluronic acid, and 1% BSA. The dye loading solution is then aspirated and cells are washed 3 times with 100 μl assay buffer. 30 μl of that same buffer is left in each well. Within the Fluorescent Imaging Plate Reader (FLIPR, Molecular Devices), test compounds are added to the plate in a volume of 25 μl, incubated for 5 min and finally 25 μl of agonist is added. Fluorescence is measured for each well at 1 second intervals for 5 minutes and the height of each fluorescence peak is compared to the height of the fluorescence peak induced by 70 pM Ala-6,12 orexin-A with buffer in place of antagonist. […] The intrinsic orexin receptor antagonist activity of a compound which may be used in the present invention may be determined by these assays.

Sequence of human orexin-2 receptor (O43614 whole entry): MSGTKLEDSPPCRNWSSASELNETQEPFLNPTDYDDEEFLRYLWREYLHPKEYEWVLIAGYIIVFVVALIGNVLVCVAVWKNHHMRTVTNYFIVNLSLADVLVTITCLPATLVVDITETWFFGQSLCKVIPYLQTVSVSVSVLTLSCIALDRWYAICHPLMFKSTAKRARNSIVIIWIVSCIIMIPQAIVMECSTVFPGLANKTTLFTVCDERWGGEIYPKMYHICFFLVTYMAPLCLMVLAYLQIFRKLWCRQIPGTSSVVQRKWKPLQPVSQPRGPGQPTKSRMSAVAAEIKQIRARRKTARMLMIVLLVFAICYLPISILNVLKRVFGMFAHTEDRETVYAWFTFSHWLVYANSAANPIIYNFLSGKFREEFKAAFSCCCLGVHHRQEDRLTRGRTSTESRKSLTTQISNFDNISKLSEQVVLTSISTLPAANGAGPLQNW

Compound	IC50
C[C@@H]1CC[C@@H](c2cc(C(C)(C)O)sn2)CN1C(=O)c1ccccc1C1(C#N)CC1 [Example 62, 1-[2-({(2R,5R)-5-[5-(1-Hydroxy-1-methylethyl)isothiazol-3-yl]-2-methylpiperidin-1-yl}carbonyl)phenyl]cyclopropanecarbonitrile]	19.1 nM
C[C@@H]1CC[C@@H](c2cc(C(C)(C)O)sn2)CN1C(=O)c1ccccc1-c1ncccn1 [Example 63, 2-(3-{(3R,6R)-6-Methyl-1-[(2-pyrimidin-2-ylphenyl)carbonyl]piperidin-3-yl}isothiazol-5-yl)propan-2-ol]	42.3 nM
C[C@@H]1CC[C@@H](c2cc(C(C)(C)O)sn2)CN1C(=O)c1ccsc1-c1ncccn1 [Example 64, 2-(3-{(3R,6R)-6-Methyl-1-[(2-pyrimidin-2-ylthiophen-3-yl)carbonyl]piperidin-3-yl}isothiazol-5-yl)propan-2-ol]	36.8 nM
C[C@@H]1CC[C@@H](c2cc(C(C)(C)O)sn2)CN1C(=O)c1cscc1-c1ncccn1 [Example 65, 2-(3-{(3R,6R)-6-Methyl-1-[(4-pyrimidin-2-ylthiophen-3-yl)carbonyl]piperidin-3-yl}isothiazol-5-yl)propan-2-ol]	46.8 nM
C[C@@H]1CC[C@@H](c2cc(C(C)(C)O)sn2)CN1C(=O)c1cscc1-n1nccn1 [Example 66, 2-{3-[(3R,6R)-6-Methyl-1-{[4-(2H-1,2,3-triazol-2-yl)thiophen-3-yl]carbonyl}piperidin-3-yl]isothiazol-5-yl}propan-2-ol]	21.1 nM
COC(=O)c1ccccc1C(=O)N1C[C@H](c2cc(C(C)(C)O)sn2)CC[C@H]1C [Example 67, Methyl 2-({(2R,5R)-5-[5-(1-hydroxy-1-methylethyl)isothiazol-3-yl]-2-methylpiperidin-1-yl}carbonyl)benzoate]	43.6 nM
C[C@@H]1CC[C@@H](c2cc(C(C)(C)O)sn2)CN1C(=O)c1ccccc1OC(F)(F)F [Example 68, 2-{3-[(3R,6R)-6-Methyl-1-{[2-(trifluoromethoxy)phenyl]carbonyl}piperidin-3-yl]isothiazol-5-yl}propan-2-ol]	22.8 nM
C[C@@H]1CC[C@@H](c2cc(C(C)(C)O)sn2)CN1C(=O)c1cccnc1OCC(F)F [Example 69, 2-{3-[(3R,6R)-1-{[2-(2,2-Difluoroethoxy)pyridin-3-yl]carbonyl}-6-methylpiperidin-3-yl]isothiazol-5-yl}propan-2-ol]	42.8 nM
COCCc1ccccc1C(=O)N1C[C@H](c2cc(C(C)(C)O)sn2)CC[C@H]1C [Example 70, 2-{3-[(3R,6R)-1-{[2-(2-methoxyethyl)phenyl]carbonyl}-6-methylpiperidin-3-yl]isothiazol-5-yl}propan-2-ol]	935 nM
